Experiments:
Design in all cases: species or system human
[1] = Relative hair diameter swelling by environmental scanning electron microscopy; settings: 3× bleached hair; 2 wt % PA pH 4-4.5, 30 min, blow dry; 10% to 95% RH
Description: All measurements were carried out using a FEI Quanta 200 FEG MKII scanning electron microscope, operating at 15 kV, with relative humidity ranging from 10% to 95%. Single source virgin brown hair was bleached three times to obtain a 3× bleached hair model (each bleaching was done with a mixture of bleaching powder (BW2) and 40V clear developer at 1:2 ratio for 1 hour at room temperature, followed by 30 s water rinse and air-dry at room temperature).

[2] = Dia-Stron single fiber mechanical testing at wet stage
Source text: Additionally, the strengthening benefits of PA and PA-GL blend treatments were confirmed by Dia-Stron single fiber mechanical testing at wet stage. For wet stage single fiber method, hair fibers (≥20 fibers per treatment) at 30 mm length are fixed by 2 brass crimps at the ends and mounted on a Dia-stron tray. Initial dimension measurements are collected using a Dia-Stron FDAS770 (double ended samples, sample size of 30 mm, no of slices of 5 under one rotation per slice), followed by equilibration in Deionized water for at least 2 h prior to testing. All fiber tensile measurements are performed using a Dia-Stron MTT686/MTT690 (under 100% extension at gauge force of 2N, break threshold of 5 g, rate of 20 mm/min, maximum force of 2000 gmf and premature failure threshold of 10% strain).

[3] = Modified Lowry Protein Assay, hair protein loss
Description: In addition, surface repair benefits from the PA or PA-GL treatments were evaluated by a protein loss assay. It is known that hair cuticle damage after various chemical treatments such as bleaching and perming results in a higher protein loss. To quantify the protein loss before and after treatments, a Modified Lowry Protein Assay was employed. In this method, a Lowry assay (Pierce Modified Lowry Protein Assay Kit, working range is at 1-1500 μg/mL) followed by absorbance measurement using UV-Visible Spectrophotometer (λmax at 740-760 nm) is used to quantify hair protein loss for a sample size of 250 mg of hair in 4 mL of deionized water.

[4] = Differential scanning calorimetry (DSC) of hair, denaturation temperature (Td); settings: for hair denaturation temperature: post-treatment pH 2, 5 min
Description: To explore treatment with PA and PA-GL, studies were performed using 3× bleached hair as a damaged hair model (each bleaching was done with a mixture of Bleaching powder (BW2) and 40V clear developer at 1:2 ratio, for 1 hour at room temperature). […] Differential scanning calorimetry (DSC) was performed on tresses at wet stage to determine the effect of phytic acid treatment on hair denaturation temperatures (Td). For wet stage DSC, a hair sample of 3-5 mg in 50 μL Deionized water sealed and equilibrated (overnight) in a stainless steel pressure resistant high-volume pan is heated from 25° C. to 180° C. at a 5 ° C./min heating rate. […] The heat damaged hair was prepared by subjecting virgin brown hair to 4 cycles of heat treatments. In each cycle, hair was treated with Deionized water (1 mL per 1.5 g of hair), massaged for 30 s followed by heat treatment (blow dry until dry at medium heat setting, flat iron at 450° F. for 10 strokes at a rate of 10 seconds per stroke from root to tip). At the end of 4 cycles of heat treatments, the hair tress is dialyzed overnight in Deionized water and air dried before DSC testing. The PA treatment on the heat damaged hair was performed using a 2 wt % PA aqueous solution at pH 4.5 for 30 min followed by blow dry. […] The heat protection benefit provided by PA using DSC was also explored, for which virgin hair with or without PA pre-treatment was subjected to 3 cycles of heat treatments. A virgin control sample was also added for comparison, which was prepared by treating the virgin brown hair with Deionized water (1 mL per 1.5 g of hair), massaged 30 seconds and air dried. For each heat treatment cycle, hair sample was blow dried until dry at medium heat setting, and flat ironed at 450° F. for 10 strokes at a rate of 10 seconds per stroke from root to tip. After three cycles of heat treatments, hair samples were dialyzed overnight in DI water and air dried before DSC testing. […] To explore strengthening benefits of PA in a hair care formulation, a PA formulation containing 0.75 wt % PA at pH 4-4.5 was used as an example. The 3× bleached hair was treated with 0.25 g of the PA formulation for 10 min followed by blow dry. Differential scanning calorimetry was performed on tresses to determine the effect of phytic acid treatment on hair denaturation temperatures (Td). […] The heat damaged hair was prepared by subjecting virgin brown hair to 4 cycles of heat treatments. In each cycle, hair was treated with Deionized water (1 mL per 1.5 g of hair), massaged for 30 s followed by heat treatment (blow dry until dry at medium heat setting, flat iron at 450° F. for 10 strokes at a rate of 10 seconds per stroke from root to tip). At the end of 4 cycles of the heat treatments, the hair tress is dialyzed overnight in Deionized water and air dried before DSC testing. […] Furthermore, the capability of PA formulation to protect hair from future chemical treatments (bleaching and coloring) was explored. In this study, two sets of treatments were performed and for each set three replicates were included. In Set I, a virgin tress was bleached once (1st bleach), followed by 12 cycles of shampoo and conditioner washes, then another bleach (2nd bleach). In Set II, similar bleaching and washing process was taken except that the tress was treated with PA formulation after the 1st bleach and 3rd, 6th, 9th, and 12th wash. In both bleaching steps, hair was treated with a mixture of BW2 bleaching powder and clear 30 V developer (1:1.5 ratio, 5 g per 1.5 g of hair) for 20 min under heat (high heat setting in a Belvedere hooded dryer), followed by 30 s water rinse and air dry at room temperature. The hair denaturation temperature (Td) was collected after each bleach treatment and every 3 washing cycles. […] Heat protection provided by the PA formulation using DSC was also explored. Here, three groups of hair samples were compared: virgin, heat control, and PA formulation treated. […]

[5] = Fracture patterns of fibers broken in Dia-stron tensile testing; settings: 3× bleached hair; 2 wt % PA pH 4-4.5, 10 min, blow dry (virgin 34%, bleached 6%)
Description: Depending on the level of hair damage, hair fibers may break with very different fracture patterns when pulling to break. […] Fracture patterns of fibers broken from Dia-stron tensile testing were examined under optical microscope to understand the relationship between fracture pattern and hair damage level. […] In contrast, when the bleached hair was treated with a 2 wt % PA aqueous solution at pH 4-4.5 for 10 min, followed by blow dry, 38% smooth fractures were observed, close to that for virgin hair, indicating effective internal hair structure repair and complete restore by PA.
Hair fracture patterns of 3× bleached and PA formulation treated fibers after Dia-stron tensile testing were also examined and compared to those for virgin and bleached hair.

[6] = High humidity test, hair tress area change; settings: 3× bleached hair, 65% RH, vs untreated bleached hair
Description: In this method, hair tresses are exposed to high humidity at 65% RH at 25° C. for 30 min and the area of hair tresses before and after exposure to humidity is quantified using Image J application.

[7] = Differential wetting characterization (DWC), water contact angle
Description: In this method, a pair of hair fibers is mounted on an in-house built stage in a horizontal plane with a separation of ˜0.75 mm. A droplet of deionized water (1 μL) is then applied onto the fiber pair by using a micro syringe. The droplet is observed using a Nikon microscope under 5× magnification and the image is taken using the incorporated digital camera. In the image, the contact angles of the water droplet on the fiber pair are measured respectively using the Nikon Advance Research software. The relative surface hydrophobicity of the fiber pair is correlated to the resulting contact angles, of which the greater value indicates higher hydrophobicity. […]

[8] = 3× bleached hair, 2 wt % solution, heat styling (blow dry or flatiron)
[9] = bleached hair, PA at 2, 5 or 15 wt % in Restore Repair Leave-In conditioner, flatiron
[10] = bleached hair, treatment pH 2 to 5, flatiron
[11] = colored hair, post-treatment, blow dry
[12] = more damaged model (2× bleached at 45° C.), 2 wt % PA pH 2, 1 hour

With `O=P(O)(O)O[C@H]1[C@H](OP(=O)(O)O)[C@@H](OP(=O)(O)O)[C@H](OP(=O)(O)O)[C@@H](OP(=O)(O)O)[C@H]1OP(=O)(O)O` [PA, phytic acid] the “relative diameter swelling rate” value [1] was “greatly reduced, even lower than virgin hair”, the “Young's modulus” value [2, 8] was “greatly improved” and the break stress [2, 8] was “greatly improved”. The “PA concentration at which significant improvement in Young's modulus and break stress was achieved” value ([2]; 3× bleached hair, PA 0.1 to 20 wt %, 15 min, heat styling) was at least 2 wt %, the “Young's modulus” value [2, 9] was “significant increases” and the break stress [2, 9] was “significant increases”. The “Young's modulus” value [2, 10] was “greatly improved”, the break stress [2, 10] was “greatly improved” and the “Young's modulus” value [2, 11] was “greatly improved”. For the same compound, the break stress [2, 11] was “greatly improved”, the “Young's modulus” value [2, 12] was “greatly improved” and the break stress [2, 12] was “greatly improved”. The “reduction of protein loss” value ([3]; 3× bleached hair, vs untreated bleached hair (6.6 mg/g hair)) was 27%, the “reduction of protein loss” value ([3]; ATG-reduced hair (7.9 mg/g hair untreated)) was 58% and the “Td after 10 shampoo and conditioner washing cycles” value ([4]; 3× bleached hair treated with 2 wt % PA aqueous solution) was at least 149 °C. For the same compound, the “hair denaturation temperature (Td)” value ([4]; 3× bleached hair, 2 wt % aqueous solution pH 2, 15 min, heat styling, vs virgin hair) was “fully recovered to the virgin level”, the denaturation temperature ([4]; 3× bleached hair, PA at 2 wt % or higher concentration, vs virgin hair) was “recovered back to or even beyond the virgin level” and the hair denaturation temperature ([4]; ATG-reduced hair, blow dry, vs virgin hair) was “recovered to the level of virgin hair”. The hair denaturation temperature ([4]; colored 3× bleached hair, blow dry) was “recovers to the level of the virgin hair”, the “recovery in Td” value ([4]; heat damaged hair (4 heat cycles), 2 wt % PA pH 4.5, 30 min, blow dry) was 5 °C and the “immediate improvement in Td” value ([4]; treated after 1st bleach (Set II)) was 3 °C. For the same compound, the “Td over 12 washing cycles and after 2nd bleach” value ([4]; treated after 1st bleach and 3rd, 6th, 9th, 12th wash, vs virgin level) was “remained above the virgin level”, the “Td after 3 heating cycles” value ([4]; virgin hair treated before each heat treatment (flat iron 450° F.), heat control 7° C. decrease) was “same Td as virgin hair” and the “change in Td upon 3 cycles of heat treatments” value ([4]; virgin hair with PA pre-treatment, heat protection) was “didn't show any significant change”. For the same compound, the smooth fractures [5] was 38%, the “hair tress area increase” value ([6]; 25° C., 30 min) was “much less area increase” and the “difference in area increase after 7 shampoo and conditioner washing cycles” value [6] was “remained significant”. The “increase in water contact angle” value ([7]; 3× bleached hair, vs untreated bleached hair) was 5 °, the “increase in water contact angle” value ([7]; ATG-reduced hair) was 5 ° and the “increase in water contact angle” value ([7]; colored hair) was 5 °.

Reference: patent publication US20230075937A1, “METHODS FOR STRENGTHENING AND REPAIRING HAIR” (Living Proof, Inc., priority 2021, published 2023)
